Assay results taken from BindingDB's records for doi:10.1021/bi900167q (Duke University, 2009).

Target: T1, UDP-3-O-acyl-N-acetylglucosamine deacetylase (Escherichia coli (strain K12), UniProt P0A725)
T1 sequence (P0A725 whole entry): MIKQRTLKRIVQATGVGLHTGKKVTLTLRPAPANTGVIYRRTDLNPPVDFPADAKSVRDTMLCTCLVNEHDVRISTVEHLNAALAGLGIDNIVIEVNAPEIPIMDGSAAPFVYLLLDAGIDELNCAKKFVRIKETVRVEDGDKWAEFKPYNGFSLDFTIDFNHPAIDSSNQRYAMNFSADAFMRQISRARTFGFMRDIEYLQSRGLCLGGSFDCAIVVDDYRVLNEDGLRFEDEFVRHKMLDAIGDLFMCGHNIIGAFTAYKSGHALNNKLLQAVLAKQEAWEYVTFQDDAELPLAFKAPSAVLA
Test: LpxC Assay
From the text: Inhibition assay using E. coli LpxC.

| IC50 | SMILES |
| --- | --- |
| > 500 µM | O=c1ccn(C2OC(CO/N=C/c3cc(O)c(O)c(O)c3)C(O)C2O)c(=O)[nH]1 (stereo not given) [1-68Ad analogue] |
| 27 µM | O=c1ccn(C2OC(CO/N=C/c3ccc(O)c(O)c3O)C(O)C2O)c(=O)[nH]1 (stereo not given) [1-68A analogue] |
| > 500 µM | O=c1ccn(C2OC(CO/N=C/c3cccc(O)c3O)C(O)C2O)c(=O)[nH]1 (stereo not given) [1-68Ac analogue] |

| SMILES | IC50 |
| --- | --- |
| O=c1ccn(C2OC(CO/N=C/c3ccc(O)c(O)c3)C(O)C2O)c(=O)[nH]1 (stereo not given) [1-68Aa analogue] | 30 µM |
| O=C(CO/N=C/c1ccc(O)c(O)c1O)NCC1OC(n2ccc(=O)[nH]c2=O)C(O)C1O (stereo not given) [2-68A analogue] | 120 µM |
